Measured values published in article PMC7278979, “Ellagic Acid Controls Cell Proliferation and Induces Apoptosis in Breast Cancer Cells via Inhibition of Cyclin-Dependent Kinase 6” (International Journal of Molecular Sciences, 2020).

Legend:
[1] = molecular target: T1, CDK6 (Homo sapiens, UniProt Q00534); assay: Fluorescence binding (quenching) study with recombinant CDK6; settings: for Ksv: Stern-Volmer plot; for ΔG°: van 't Hoff equation
T1 construct: The 981-bp coding region (326 amino acids) was amplified by PCR from plasmid pcDNA containing the CDK6 gene; His-tag; made in house; host or cells: E. coli BL21 (codon+), pET28a+ (NcoI/XhoI)
T1 sequence (Q00534 whole entry): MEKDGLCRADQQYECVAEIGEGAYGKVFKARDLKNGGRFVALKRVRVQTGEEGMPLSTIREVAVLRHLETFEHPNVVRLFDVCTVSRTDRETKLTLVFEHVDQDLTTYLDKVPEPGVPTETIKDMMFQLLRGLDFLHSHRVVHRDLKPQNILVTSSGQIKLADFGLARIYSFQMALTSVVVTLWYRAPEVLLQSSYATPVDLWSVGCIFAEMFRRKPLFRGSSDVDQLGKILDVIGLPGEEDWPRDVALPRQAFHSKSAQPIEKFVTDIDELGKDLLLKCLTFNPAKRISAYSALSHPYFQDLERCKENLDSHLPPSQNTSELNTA
Procedure: To study the binding affinity of EA with the recombinant CDK6, a fluorescence binding study was performed. CDK6 was titrated with the EA and corresponding emission spectra were recorded in the range of 300–400 nm after carrying out excitation at 280 nm. The inner filter effect was corrected for the obtained intensities. Fluorescence emission spectra were analyzed by the Stern-Volmer equation to find Stern-Volmer constant (Ksv) and modified Stern-Volmer equation to estimate the binding constant (K) and the number of binding sites (n). Other binding features were estimated by our previously described protocol.
With each reaction, changes in enthalpy and entropy are associated, which are evidence of the type of reaction taking place. Equation (1) (“van ’t Hoff equation”) was employed to calculate the thermodynamic parameters associated with this binding, (1) ΔG°=−RTLnK=ΔH°−TΔS°

[2] = molecular target: T1, CDK6; assay: Isothermal titration calorimetry of EA with CDK6; settings: ITC, 25 °C, one binding site model; read-out: Ka (binding constant) (converted)
Procedure: ITC measurements were carried out at 25 °C using a VP-ITC microcalorimeter (MicroCal, Inc, GE, MicroCal, USA). The sample cell was filled with 15–20 µM CDK6 and 500 µM EA solution was filled in the syringe. An automated titration was carried out with (including a first false injection of 2 μL) a successive injection of 10 μL EA solution into a CDK6 sample cell at a 260 s interval with 320 rpm stirring speed. For analysis, the heat of dilution of EA in the sample buffer was subtracted from the titration data. MicroCal Origin 8.0 was used to analyze the stoichiometry of binding (n), enthalpy change (ΔH), an association constant (Ka).

[3] = molecular target: T1, CDK6; assay: ATPase enzyme inhibition assay (malachite green); type: biochemical; settings: CDK6 1 µM, ATP 50 µM, 25 °C, 1 h, AAT Bioquest calculator
Procedure: ATPase assay was performed to see the CDK6 inhibitory activity of EA [57]. For a typical kinase reaction, freshly prepared ATP (50 µM) was incubated with CDK6 (1 µM) in a reaction volume of 100 μL and incubated at 25 °C for 1 h. Similar reactions were set up with the increasing concentration of EA. Malachite green (200 μL) was further added to the reaction mixture to stop the reaction followed by incubation of samples at room temperature for 20–25 min for the development of color. The absorbance of the final reaction product was measured spectrophotometrically at 620 nm.

[4] = tested on: MCF-7 cells; assay: Cell viability MTT assay; type: cell-based; settings: Homo sapiens, MCF7, MCF-7, 48 h (Figure 8 legend; method says 72 h), mean ± SD n = 3
Procedure: (§1) Cell viabilities of cancer cells with or without EA were evaluated using MTT assay. Briefly, the selected cells (MCF-7 and MDA-MB-231) were seeded in a 96-well (5000–6000 cells/well) culture plate. Overnight grown cells were incubated with EA (0–250 μM) for 72 h in a CO2 incubator, at 37 °C. After a stipulated time of treatment, 20 µL of MTT (from 5 mg/mL stock solution in PBS, pH 7.4) was added to each treatment well of 96-well plate, and plates with MTT solution were incubated additionally for 4–5 h, in the CO2 incubator. Lastly, the formazan were solubilized by adding 100 µL of DMSO to each well. The absorbance (A) of the dissolved purple reaction solution was measured at 570 nm. Absorption readings were converted into percent cell viability and used to estimate 50% inhibitory concentration (IC50) of EA for selected cancer cells.

[5] = tested on: MDA-MB-231 cells; assay: Cell viability MTT assay; type: cell-based; settings: Homo sapiens, MDA-MB-231, 48 h (Figure 8 legend; method says 72 h), mean ± SD n = 3
Procedure: as §1

[6] = tested on: MCF-7 cells; assay: Apoptosis assay (Annexin-V staining, flow cytometry); type: cell-based, human; settings: MCF-7, IC50 concentration of EA, 48 h
[7] = tested on: MDA-MB-231 cells; assay: as above; type: cell-based, human; settings: MDA-MB-231, IC50 concentration of EA, 48 h
[8] = tested on: CDK6; assay: CDK6 expression study (immunoblotting); type: cell-based, human; settings: EA-treated vs vehicle control, immunoblot
Procedure: The cell lysates of EA-treated/untreated MCF-7 and MDA-MB-231 cell lines were prepared using RIPA cell lysis buffer (Thermo Fisher Scientific (USA)) and total protein was isolated. The amount of protein was quantified by a BCA-protein estimation kit. Nearly, 50–60 μg of total protein was subjected for SDS-PAGE, and obtained bands were blotted to polyvinylidene fluoride membrane. The protein of interest was identified using respective primary antibodies and horseradish peroxidase (HRP) conjugated secondary IgG using the luminol method.

[9] = tested on: MCF-7 cells; assay: Colony formation assay; type: cell-based, human; settings: MCF-7, IC50 concentration of EA, 10–12 days, vs vehicle control
Procedure: (§2) To perceive the effect of EA treatment on the colonogenic potential of selected cell lines colony formation studies were performed as described previously. Briefly, ~1500–2000 (MCF-7/MDA-MB-231 cells) cells/well were seeded (in triplicates) in each well of a 6-well cell culture plate. The cells were grown in complete cell growth medium for 48 h and incubated with respective IC50 concentrations of EA for 10–12 days, (at 37 °C, in a 5% CO2 incubator). On the other hand, the control cells were incubated with vehicle control (DMSO) under similar experimental conditions. After 10–12 days, the colonies of cells were fixed with 100% methanol and subsequently stained using a 0.4% crystal violet solution (prepared in 25% methanol. Finally, the colonies obtained after staining were photographed, quantified, plotted, and analyzed by comparing with vehicle control.

[10] = tested on: MDA-MB-231 cells; assay: Colony formation assay; type: cell-based, human; settings: MDA-MB-231, IC50 concentration of EA, 10–12 days, vs vehicle control
Procedure: as §2

[11] = van 't Hoff plot over 298, 301, 303 K (same value printed at each temperature)

O=c1oc2c(O)c(O)cc3c(=O)oc4c(O)c(O)cc1c4c23 [EA, ellagic acid]
Kq (bimolecular quenching rate constant) ([1]; 298 K): 5.8 10^12 M^−1s^−1 | TΔS° ([1]; 298 K): 84.60 kcal/mol | Kq (bimolecular quenching rate constant) ([1]; 301 K): 14.2 10^12 M^−1s^−1 | TΔS° ([1]; 301 K): 85.45 kcal/mol | Kq (bimolecular quenching rate constant) ([1]; 303 K): 19.8 10^12 M^−1s^−1 | TΔS° ([1]; 303 K): 86.02 kcal/mol | Ksv ([1]; 298 K): 5.8 10^4 M^−1 | Ksv ([1]; 301 K): 14.2 10^4 M^−1 | Ksv ([1]; 303 K): 19.8 10^4 M^−1 | binding constant (K) ([1]; fluorescence quenching, modified Stern-Volmer, 303 K): 2.6e+07 M⁻¹ | Kd ([1]; fluorescence quenching, modified Stern-Volmer, 303 K, read-out: binding constant (K)): 0.1 µM | n (number of binding sites) ([1]; modified Stern-Volmer, 298 K): 1.32 | Kd ([1]; modified Stern-Volmer, 298 K, read-out: K (binding constant) (converted)): 0.345 µM | n (number of binding sites) ([1]; modified Stern-Volmer, 301 K): 1.16 | Kd ([1]; modified Stern-Volmer, 301 K, read-out: K (binding constant) (converted)): 0.154 µM | n (number of binding sites) ([1]; modified Stern-Volmer, 303 K): 1.41 | Kd ([1]; modified Stern-Volmer, 303 K, read-out: K (binding constant) (converted)): 0.0385 µM | ΔG° ([1]; 298 K): -8.73 kcal/mol | ΔG° ([1]; 301 K): -9.59 kcal/mol | ΔG° ([1]; 303 K): -10.16 kcal/mol | ΔH° [1, 11]: 75.8657 kcal/mol | ΔS [1, 11]: 283.9087 cal.mol^−1K^−1 | Kd [2]: 39.7 µM | IC50 [3]: 3.05 µM | IC50 [4]: 29.1 ± 1.15 µM | IC50 [5]: 20.5 ± 1.22 µM | Annexin-V positive cells (apoptosis) [6]: 23.3% | Annexin-V positive cells (apoptosis) [7]: 27.9% | expression of CDK6 ([8]; MCF-7 cells): decreases the expression of CDK6 | expression of CDK6 ([8]; MDA-MB-231 cells): decreases the expression of CDK6 | number of colonies [9]: decreases the number of colonies significantly | number of colonies [10]: decreases the number of colonies significantly
